Measured values from publication PMC12549899 (Nature Communications, 2025).
“And” between values parts separate entries of the source, which are not always exact repeats. Equal values may be shown once.

Molecular target: T1, DrOTOP1 A274W (Danio rerio, UniProt Q7ZWK8, A274W)
T1 construct: A previously generated codon-optimized full-length DrOTOP1[8]; (UniProt: Q7ZWK8) construct; expressed in transfected cells; host or cells: HEK-293 (CRL-1573, ATCC)
T1 sequence (Q7ZWK8 1-586 A274W): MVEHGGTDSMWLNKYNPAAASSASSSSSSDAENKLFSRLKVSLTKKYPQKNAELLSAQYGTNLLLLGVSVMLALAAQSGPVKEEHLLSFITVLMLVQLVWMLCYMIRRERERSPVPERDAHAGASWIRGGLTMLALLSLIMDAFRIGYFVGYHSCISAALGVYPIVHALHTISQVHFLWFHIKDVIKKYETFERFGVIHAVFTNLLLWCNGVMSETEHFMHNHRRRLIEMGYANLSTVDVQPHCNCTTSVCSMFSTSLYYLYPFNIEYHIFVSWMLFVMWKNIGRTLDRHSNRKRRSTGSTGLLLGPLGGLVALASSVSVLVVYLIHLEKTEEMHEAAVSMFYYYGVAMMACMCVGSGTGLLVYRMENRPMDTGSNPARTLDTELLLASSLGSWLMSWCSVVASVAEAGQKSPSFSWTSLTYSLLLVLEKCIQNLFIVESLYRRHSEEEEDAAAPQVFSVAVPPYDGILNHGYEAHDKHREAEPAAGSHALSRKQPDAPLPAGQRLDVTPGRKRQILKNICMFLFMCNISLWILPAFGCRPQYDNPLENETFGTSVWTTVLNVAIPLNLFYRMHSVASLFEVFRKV
Assay: Whole-cell patch-clamp, inhibition of acid-evoked currents, DrOTOP1 A274W
Format: cell-based, zebrafish (Danio rerio)
Excerpt: We next tested mutations of the central site (L205W, A274W, F277A, E384A L385W, A388W). V201W and S389W, two additional central site mutations, were excluded from the study due to complete loss of channel activity. Mutation of E384 to alanine is expected to disrupt potential hydrogen bonding with C2.2. Of note, E384 is one of the few charged residues in the central pocket and could form a salt bridge with K281, that could also be affected by the mutation. Additionally, in our DrOTOP1_C2.2 structure, we observed that F277 underwent a substantial rearrangement, likely to avoid steric clash and accommodate C2.2 binding. Thus, we introduced the F277A mutation to test if removing this steric clash would enhance C2.2 inhibition.
HEK-293 cells (CRL-1573, ATCC) were cultured in DMEM (Thermofisher 11995073) containing 10% fetal bovine serum (Life Technology 16000044) and Penicillin-Streptomycin (100 I.U./mL) and (100 µg/mL), respectively. Cells were transfected with WT DrOTOP1 or mutant DrOTOP1 channels in 35 mm petri dishes, with ~ 500 ng DNA and 2 μL TransIT-LT1 transfection reagent (Mirus Bio Corporation, Cat # MIR2300) following the manufacturer’s protocol. All constructs were subcloned into a pcDNA3.1 vector that adds an N-terminal fusion tag consisting of an octahistidine tag followed by eGFP, a Gly-Thr-Gly-Thr linker and a 3C protease cleavage site ([…]) followed by WT DrOTOP1, WT mOTOP1, WT hOTOP1, or mutated DrOTOP1. Point mutations were generated via In-Fusion Cloning (Takara) using single-stranded DNA primers generated through IDT and sequence confirmed by Sanger sequencing (GeneWiz).
Whole-cell patch-clamp recording was performed as previously described[6],[22],[25]. Recordings were made with an Axopatch 200B amplifier, digitized with a Digidata 1322a 16-bit data acquisition system, acquired with pClamp 8.2 and analyzed with Clampfit 10 (Molecular Devices). Recordings were sampled at 5 kHz and filtered at 1 kHz. Patch Pipettes with resistance of […] were fabricated from borosilicate glass, and only recordings with a giga-Ohm seal were used in analysis. Membrane potential was held at −80 mV for the duration of recordings. At the beginning of recordings and between, cells were washed with Tyrode’s solution (see below). Once a giga-Ohm seal was reached, cells were lifted and placed in front of microcapillary tubes controlled by a Fast-Step perfusion system (Warner Instruments) so that extracellular solutions could be rapidly exchanged during each experiment.
Standard Tyrode’s solution consisted of 145 mM NaCl, 5 mM KCl, MgCl2, 2 mM CaCl2, 20 mM D-Glucose, and 10 mM HEPES (for pH 7.4). All other extracellular patch-clamp solutions contained 160 mM NMDG-Cl, 2 mM CaCl2, and the following buffers: 10 mM HEPES (for pH 7.4), 10 mM MES (for pH 6.5-5.5), 10 mM CHES for pH 10, and 10 mM HomoPIPES for (pH 5.0). pH adjusted with HCl. When adding compounds to extracellular solutions, the concentration of DMSO in solution was never higher than 0.3%. […]
All data are presented as mean ± SEM unless otherwise noted, and each data point represents an independent replicant. Inhibition of compounds was quantified as ((I2peak-I1)/(I2peak))*100, where I1 is the current immediately before wash-off and I2peak is the maximum recovered current (Supplementary Fig. 2). Hill coefficients were determined by the following equation: Y = Bmax*X^h/(Kd^h + X^h). […]

O=C(/C(=N\O)c1ccccc1)c1ccccc1 [C11, benzil monoxime]
Inhibition of currents (100 µM, single cells): 70.9091% and 73.0647% and 75.9259% and 71.7822%
inhibition at 100 µM (100 µM, single cells): 76.2%

C=C(C)COc1ccccc1NC(=O)c1nc[nH]c1C [C2.2]
inhibition at 10 µM (10 µM, single cells or mean): 74.6%
Inhibition of currents (10 µM, single cells or mean, mean): 72.36%
Inhibition of currents (10 µM, single cells or mean, single cells): 71.3399% and 74.8032% and 68.9769% and 72.0779%
